From patent publication US9062051B2, “Compounds and pharmaceutical compositions thereof for the treatment of proliferative disorders” (GALAPAGOS NV, priority 2014, dated 2015) come the findings set out here.

In one data set the target is T1, EphA4 (UniProt Ref: P54764) (Homo sapiens, UniProt P54764).
T1 construct: purchased Reaction Biology
The data set is described as follows: EphA4 assay (Reaction Biology HotSpot radioactive kinase assay). Particulars: EphA4 potency; ATP 10 μM. The format is biochemical. Here is the method:
Inhibition of EphA4 (UniProt Ref: P54764) by a test compound is determined by a commercially available Reaction Biology proprietary nanoliter radioactive HotSpot^SM assay (Reaction Biology, One great valley parkway, Suite 2, Malvern Pa., 19355, USA). The principle of the assay consists of the measurement of incorporated ^33P into poly[Glu:Tyr] (4:1) (0.2 mg/mL) when the substrate is phosphorylated by the enzyme using [^33P]-γ-ATP and ATP (10 μM).
To determine the IC50, a serial dilution of compound is tested starting from 10 or 3 μM (highest dilution) with a 1/3 dilution.

Data set [1] is described as follows: In vivo efficacy in the rat MNX (meniscectomised) model of osteoarthritis, OARSI score. On the set-up: species or system female Lewis rat. To be noted: versus MNX-vehicle. From the text: In vivo efficacy was studied in a female Lewis meniscectomised rat (MNX) model. The MNX rat model is a well-validated disease model of osteoarthritis (Janusz et al., 2002; Pritzker et al., 2006; Bendele et al., 2001).
Osteoarthritis is induced by meniscectomy at day 0 (D0) in the right leg of each rat by a transection of the medial collateral ligament and 4 mm of ligament are removed. Internal part of the meniscus is transected vertically into two flaps which are pushed to the front and the back of the synovial cavity. Sham animals undergo only anaesthesia, skin and muscle incision then suture. On day 1, rats are randomly assigned to a treatment group (n=20 per group) according to their body weight, in order to have a homogenous distribution. From D2 to D21, rats are dosed per os (po) once daily (qd) or twice a day (bid) with compounds formulated in methylcellulose (MC) 0.5% or in HPβCD 10% pH3.0.
After at least 7 days of treatment, blood is sampled at 4 time points post administration: 0, 1, 3 and 6 h (and assuming 24 h is equal to the pre-dose sample), in order to determine steady-state plasma exposure.
At sacrifice, the right tibia of each rat is collected and processed for histological analysis. After 48 h of fixation in 4% formaldehyde, tibias are decalcified in Osteosoft for 7 days, and cut into 2 half parts prior to embedding face to face in paraffin. Five series of sections are cut at 200 μm intervals, covering about 1.5 mm of the middle part of the bone. One series of slides is stained with Safranin O and light green for morphological evaluation and OARSI scoring. The other series of slides are mounted with DAPI for chondrocyte density measurement.
The extent of cartilage injury reflecting osteoarthritis in the tibial plateau is evaluated and scored using the OARSI method based on the grading and the staging of cartilage lesion (Pritzker et al., 2006). The OARSI scoring is assessed in a blinded manner by two different readers. For each tibia, one score is attributed as the median of the OARSI score of the 5 sections.
OARSI score=grade×stage (1 to 24)
Grade=lesion depth into cartilage area, providing information on arthritis severity.
Stage=lesion extent over cartilage surface, providing information on arthritis extent.
For statistical analysis, medians of groups are compared with a stratified Kruskal-Wallis test followed by Dunnett multiple comparison post hoc test.
Significance levels: *p<0.05; **p<0.01; ***p<0.001 versus MNX-vehicle. Statistical analyses are done on all groups of the studies

The nature of data set [2]: Plasma exposure at day 7 in the MDA-MB-231 xenograft experiment. Type of data set: in vivo, Female BALB/c Mice. To be noted: for AUC: female, BALB/c, mouse, plasma, po. As to the method: 5 million MDA-MB-231 cells/mice in 0.1 mL of 50% Matrigel (BD biosciences, LDEV free 256235)+50% D-PBS 1× (Gibco 14190-086) are injected by subcutaneous route on the upper back of 120 mice. Prior to implantation, mice are anesthetized by intra-peritoneal injection with a 0.1 mL/10 g dose of anaesthetic solution (18 mL NaCl, 0.9%+0.5 mL xylazine, +1.5 mL ketamine. After implantation, tumours are regularly measured with a calliper, and mice with a mean tumour volume of about 200 mm^3 are randomized into groups of 10 individuals, and each group is dosed either with vehicle (p.o.), paclitaxel as control (3×/week, 20 mg/kg i.p.), or a test compound at doses of 3, 10, 30 or 100 mg/kg (p.o., QD, in 10 mL/kg administration volume)
Even at a 10 fold higher dosing (300 mg/kg, p.o.), Comparative Compound A remains 3.9 fold less exposed than Compound 55.

For another data set, the system named is MDA-MB-231 cells. The data set is described as follows: Mouse xenograft model of human triple negative breast cancer (MDA-MB-231), tumorous growth inhibition. The format is in vivo, Female BALB/c Mice. To be noted: for RTV (Relative Tumor Volume) / T/C (Tumour Vs Control) / TGI (Tumor Growth Inhibition): p.o., qd. As to the method: Animals (Female BALB/c Mice, Harlan, 51930, 18-20 g) are provided with filtered tap water and standard chow ad libitum and maintained at 22±2° C. in 55±10% humidity on a 12 h light/dark cycle.
Paclitaxel used as a positive control is formulated by 1/3 dilution of commercial solution (Fresenius kabi, 871WF014/4) in saline.
The test compounds for po administration are formulated in 0.5% methylcellulose (VWR, ref AX021233).
MDA-MB-231 cell line is obtained from the ATCC collection (ref HTB-26). The cells are then cultured in RPMI 1640 medium supplemented with […] (Gibco 15140-148) and 1% (v/v) L-Glutamine 200 mM (Gibco 25030-024) at 37° C. in a 5% CO2 incubator.
5 million MDA-MB-231 cells/mice in 0.1 mL of 50% Matrigel (BD biosciences, LDEV free 256235)+50% D-PBS 1× (Gibco 14190-086) are injected by subcutaneous route on the upper back of 120 mice. Prior to implantation, mice are anesthetized by intra-peritoneal injection with a 0.1 mL/10 g dose of anaesthetic solution (18 mL NaCl, 0.9%+0.5 mL xylazine, +1.5 mL ketamine. […]
Body weight, and tumor growth is recorded twice a week during the course of treatment.
After 26 days the treatment is stopped, in each group half of the mice are euthanized for tissue collection, and the other half is kept for a further 7 days, during which period body weight and tumour sized are measured.
In sacrificed mice, blood and tumours are collected, analysed, and the effect of the test compounds is compared with controls (vehicle and paclitaxel).
The values were obtained using the following calculations
Relative Tumor Volume (RTV):
Tumor Growth Inhibition (TGI) TGI=1−T/C
On the technique in general: In xenograft studies the graft and the host belong to different species.

As a reminder, the IC50 is the concentration that inhibits the measured activity by half. The AUC is the area under the concentration-time curve, a measure of exposure. Low readings indicate less exposure, high ones more exposure.

Entries after “also recorded” stand apart in the source; their conditions may differ.

T1 sequence (P54764 20-986): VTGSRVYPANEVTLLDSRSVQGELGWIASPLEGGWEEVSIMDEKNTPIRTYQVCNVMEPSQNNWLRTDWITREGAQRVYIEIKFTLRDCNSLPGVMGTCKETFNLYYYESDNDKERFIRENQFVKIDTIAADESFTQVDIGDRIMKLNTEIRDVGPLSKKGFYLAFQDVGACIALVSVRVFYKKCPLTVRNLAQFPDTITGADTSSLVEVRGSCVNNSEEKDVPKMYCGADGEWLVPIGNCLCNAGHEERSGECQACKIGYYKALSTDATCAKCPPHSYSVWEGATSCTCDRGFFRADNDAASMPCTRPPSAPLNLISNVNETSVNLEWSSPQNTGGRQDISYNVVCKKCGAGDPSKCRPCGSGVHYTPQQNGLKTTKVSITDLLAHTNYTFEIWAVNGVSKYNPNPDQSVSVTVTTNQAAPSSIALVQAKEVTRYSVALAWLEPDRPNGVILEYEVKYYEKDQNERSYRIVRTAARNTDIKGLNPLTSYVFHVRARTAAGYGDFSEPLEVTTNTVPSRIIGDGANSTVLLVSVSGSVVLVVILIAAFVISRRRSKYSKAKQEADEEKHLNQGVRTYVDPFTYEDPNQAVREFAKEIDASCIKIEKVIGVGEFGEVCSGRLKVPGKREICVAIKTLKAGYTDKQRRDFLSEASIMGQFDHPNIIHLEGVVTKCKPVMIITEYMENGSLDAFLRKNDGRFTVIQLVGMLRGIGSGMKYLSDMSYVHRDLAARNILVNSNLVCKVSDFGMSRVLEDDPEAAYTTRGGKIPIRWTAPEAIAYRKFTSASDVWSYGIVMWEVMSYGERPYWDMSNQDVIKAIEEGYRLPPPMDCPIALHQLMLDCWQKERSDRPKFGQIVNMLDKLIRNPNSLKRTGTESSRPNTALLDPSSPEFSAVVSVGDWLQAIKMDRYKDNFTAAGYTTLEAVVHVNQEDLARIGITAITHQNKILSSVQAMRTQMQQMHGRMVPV

As for `Cc1ccc(NC(=O)c2cccc(C(F)(F)F)c2)cc1-c1ccc2c(C(O)CN3CCOCC3)n[nH]c2n1` (stereo not shown) [Compound 2, N-{3-[3-(1-Hydroxy-2-morpholin-4-yl-ethyl)-1H-pyrazolo[3,4-b]pyridin-6-yl]-4-methyl-phenyl}-3-trifluoromethyl-benzamide], at EphA4, the half-inhibitory concentration (IC50) is 0.01 to 25 nM. For the same molecule, the OARSI score in data set [1] (20 mg/kg) is recorded as −17%, p < 0.05.
Turning to `Cc1ccc(NC(=O)c2cccc(N(C)C)c2)cc1-c1ccc2c(C(O)CN3CCOCC3)n[nH]c2n1` (stereo not shown) [Compound 6, 3-Dimethylamino-N-{3-[3-(1-hydroxy-2-morpholin-4-yl-ethyl)-1H-pyrazolo[3,4-b]pyridin-6-yl]-4-methyl-phenyl}-benzamide], the OARSI score entry in data set [1] (30 mg/kg) is given as “ns”.
With `COc1cc(OC)cc(C(=O)Nc2ccc(C)c(-c3ccc4c(C(C)O)n[nH]c4n3)c2)c1` (stereo not shown) [Compound 9, N-{3-[3-(1-Hydroxy-ethyl)-1H-pyrazolo[3,4-b]pyridin-6-yl]-4-methyl-phenyl}-3,5-dimethoxy-benzamide], the IC50 at EphA4 fell in the range of 50 to 100 nM. In addition, the OARSI score entry in data set [1] (30 mg/kg) is “ns”.
As to `CCc1n[nH]c2nc(-c3cc(NC(=O)c4cc(OC)cc(OC)c4)cnc3C)ccc12` [Compound 13, N-[5-(3-Ethyl-1H-pyrazolo[3,4-b]pyridin-6-yl)-6-methyl-pyridin-3-yl]-3,5-dimethoxy-benzamide], the OARSI score entry in data set [1] (30 mg/kg) was “ns”.
`COc1cc(OC)cc(C(=O)Nc2ccc(C)c(-c3ccc4c(C5(O)CC5)n[nH]c4n3)c2)c1` [Compound 29, N-{3-[3-(1-Hydroxy-cyclopropyl)-1H-pyrazolo[3,4-b]pyridin-6-yl]-4-methyl-phenyl}-3,5-dimethoxy-benzamide]: on EphA4, the half-maximal inhibitory concentration (IC50) is greater than 100 nM. The OARSI score result in data set [1] (15 mg/kg) is recorded as “ns”.
As for `Cc1ccc(NC(=O)c2cccc(C(F)(F)F)c2)cc1-c1ccc2c([C@H](C)O)n[nH]c2n1` [Compound 55, N-{3-[3-((S)-1-Hydroxy-ethyl)-1H-pyrazolo[3,4-b]pyridin-6-yl]-4-methyl-phenyl}-3-trifluoromethyl-benzamide], on EphA4, the IC50 was in the range of 25 to 50 nM. In addition, in data set [2] (even if Compound A is administered at a 10 fold higher dose), the “exposure compared with comparative Compound A” value is listed as “higher”. For the same molecule, the exposure (AUC) in data set [2] (day 7, 30 mg/kg p.o.) was found to be 31000 ng·h/mL. In data set [2] (plasma exposure at day 7, both at 30 mg/kg p.o.), the “fold higher exposure than the comparison compound A” value is recorded as greater than 24 fold. For the same molecule, in data set [1] (30 mg/kg), the OARSI score was −23%, p < 0.05. For the same molecule, in the data set with MDA-MB-231 cells (30 mg/kg p.o., QD, 26 days treatment, MDA-MB-231 xenograft), the tumour growth result was “complete block of tumour growth; also recorded: blocks tumorous growth”. Also, in the data set on MDA-MB-231 cells (day 26, 30 mg/kg), the “RTV (Relative Tumor Volume)” value is reported as 1.01, the “T/C (Tumour Vs Control)” value is 0.14% and the “TGI (Tumor Growth Inhibition)” value is recorded as 99.86%.
With `Cc1ccc(NC(=O)c2cccc(C(F)(F)F)c2)cc1-c1cc(C)c2c(N)n[nH]c2n1` [Compound A, N-(3-(3-amino-4-methyl-1H-pyrazolo[3,4-b]pyridin-6-yl)-4-methylphenyl)-3-(trifluoromethyl)benzamide], the exposure (AUC) in data set [2] (day 7, 30 mg/kg p.o.) stood at 1280 ng·h/mL; in data set [2] (day 7, 100 mg/kg p.o.), 4240 ng·h/mL; in data set [2] (day 7, 300 mg/kg p.o.), 7920 ng·h/mL. Further, in data set [2] (plasma exposure at day 7, Compound A at 300 mg/kg p.o. (10 fold higher dosing)), the “fold less exposed than Compound 55” value was 3.9 fold. Also, the “RTV (Relative Tumor Volume)” value with MDA-MB-231 cells (day 26, 30 mg/kg) came to 3.40; in the data set with MDA-MB-231 cells (day 26, 100 mg/kg) it was 3.09; in the data set on MDA-MB-231 cells (day 26, 300 mg/kg), 4.74. Moreover, the “T/C (Tumour Vs Control)” value came out at 54.89% in the data set on MDA-MB-231 cells (day 26, 30 mg/kg); 47.80% in the data set on MDA-MB-231 cells (day 26, 100 mg/kg); 85.40% in the data set with MDA-MB-231 cells (day 26, 300 mg/kg). Moreover, the “TGI (Tumor Growth Inhibition)” value in the data set on MDA-MB-231 cells (day 26, 30 mg/kg) is 45.11%; in the data set with MDA-MB-231 cells (day 26, 100 mg/kg), 52.20%; in the data set with MDA-MB-231 cells (day 26, 300 mg/kg), 14.60%. Further, in the data set on MDA-MB-231 cells (dosed at 30, 100 or 300 mg/kg, 26 days treatment, MDA-MB-231 xenograft), the anti-tumour effect entry is “shows a plateau of its anti-tumour effect and is not able to achieve the same effect on inhibition of tumour growth”.
